Data reported in PubChem BioAssay AID1963841 (Molecular Pharmacology Branch, DTP, NCI, 2024).
Where “and” joins values, the source holds several entries; their conditions need not be identical. Equal entries are not always repeated.

Tested on: 439559-082-T-J2-PDC spheroid viability
Assay: Anticancer human tumor 439559-082-T-J2-PDC patient-derived colon adenocarcinoma cell line growth inhibition [POLQ]
Settings: spheroids with HUVEC and MSC; for viability, T/C: stronger effect = lower value
Procedure: Multicellular complex tumor spheroid response to Polymerase (POL) inhibitors (novobiocin, ART-558, RP6685) in combination with a variety of drugs and investigational agents in selected tumor cell lines
The POL inhibitors (novobiocin, ART-558, and RP6685) were evaluated both individually and in combination with standard of care and investigational anticancer small molecules within a complex spheroid model of solid tumors. . Complex spheroids include a stromal component modeled by human endothelial cells (HUVEC) and fibroblasts modeled by human mesenchymal stem cells (MSCs). The concentration ranges selected for each drug and investigational agent were based upon clinically achievable concentrations if the clinical Cmax of the agent was known.
Compounds. The drugs and investigational agents: novobiocin (NSC847541), ART-558 (NSC835418), RP-6685 (NSC848927), peposertib (NSC802822), ceralasertib (NSC780249), elimusertib (NSC800525), camonsertib (NSC841442), AZD-1390 (NSC803789), olaparib (NSC753686), talazoparib (NSC767125), rucaparib (NSC756644), sotorasib (NSC818433), MRTX-1133 (NSC836407), SN-38 (NSC673596), topotecan (NSC609699), epotoside (NSC141540), doxorubicin (NSC123127), gemcitabine (NSC613327), 5-fluorouracil (NSC19893), paclitaxel (NSC125973), vemurafenib (NSC761431), MSA-2 (NSC828583), SN-011 (NSC837082), adavosertib (NSC754352), prexasertib (NSC758257), carboplatin (NSC241240) and oxaliplatin (NSC266046), were obtained from the National Cancer Institute (NCI) Developmental Therapeutics Program Chemical Repository (21). The FDA-approved anticancer drug set is available from the Developmental Therapeutics Program at https://dtp.cancer.gov/organization/dscb/obtaining/. […] The stock solutions were prepared in dimethyl sulfoxide (DMSO, Sigma-Aldrich, St. Louis, MO, cat. D2650), except for the platinum compounds which were prepared in saline (Quality Biological, Gaithersburg, MD, cat. 114-055-101), at 800-fold the tested concentration and stored at -70 degrees C prior to their use. All drugs and investigational agents were tested over a range starting from a high concentration at or near the clinical Cmax and decreasing in half-log increments. If the clinical Cmax for an agent had not been determined, the highest concentration tested was 10 microM, except for SN-38, which was tested at a high concentration of 1 microM.
Cell Culture. All cells were maintained in an incubator at 37 degrees C and 5% CO2 with 95% humidity. The PDC lines were cultured according to standard operating procedures established by the NCI PDMR (https://pdmr.cancer.gov). Table 3 of the manuscript, lists the cell lines along with the number of the three cell types plated to form the mct-spheroids and media for tumor cell growth. After thawing, all PDC lines, except 997537-175-T-J1-PDC and 415267-285-R-J2-PDC, were cultured in Matrigel-coated flasks prepared with a working solution of 1X Ham's F-12 nutrient mix, without supplementation (Thermo Fisher Scientific, cat. 11765054), 100 U/mL penicillin-streptomycin (Thermo Fisher Scientific, cat. 15140122), and 2.5% Matrigel (Corning Inc., Corning, NY, cat. 354248) for the first three passages. The two PDC lines 997537-175-T-J1-PDC and 415267-285-R-J2-PDC were cultured on uncoated flasks. The 857933-349-R-J2-PDC line was cultured in 6C/Colon 1B media containing advanced DMEM/F-12 (Thermo Fisher Scientific, cat. 12634028), 10 mM HEPES (Thermo Fisher Scientific, cat. 15630080), 1X GlutaMAX supplement (Thermo Fisher Scientific, cat. 35050061), 0.1 mg/mL primocin (InvivoGen, San Diego, CA, cat. ant-pm-2), 10% defined fetal bovine serum, heat inactivated (HyClone Laboratories Inc., Logan, UT, cat. SH30070.03HI), 50% L-WRN conditioned media (ATCC, cat. CRL-3276), 1.25 mM N-Acetyl-L-cysteine (Sigma-Aldrich, cat. A9165), 10 mM nicotinamide (Sigma-Aldrich, cat. N0636), 1X B-27 supplement (Thermo Fisher Scientific, cat. 17504044), 1X N-2 supplement (Thermo Fisher Scientific, cat. […]
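Note: spheroids exposed to compounds for seven days before readout.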
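Throughout, for viability, T/C: 100% = DMSO vehicle control viability.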

For `CC1COCCN1c1cc(C2(O)CC3CCC(C2)O3)c2cnn(-c3ccn[nH]3)c2n1` (stereo not drawn), the viability, T/C (compound 0.0316 µM) was 92.2% and 97.5% and 97.8%, the viability, T/C (compound 0.1 µM) was 82.7% and 81.3% and 85.3% and the viability, T/C (compound 0.316 µM) was 70.9% and 70.1% and 75.3%. For the same compound, the viability, T/C (compound 1 µM) was 61.7% and 59.7% and 72.1%, the viability, T/C (compound 3.16 µM) was 47.5% and 49% and 59.7% and the viability, T/C (compound 10 µM) was 46.5% and 47% and 53.5%. For the same compound, the IC50 (curve of compound) was 3.48 µM and 4.1 µM and > 10 µM.

`COc1cc(C2c3cc4c(cc3C(OC3OC5COC(C)OC5C(O)C3O)C3COC(=O)C23)OCO4)cc(OC)c1O` (stereo not drawn) + Nc1ccc(C#CCN(C(=O)Cc2ncc(C(F)(F)F)cc2C(F)(F)F)c2ccc(F)cc2)nn1 was tested, and the IC50 (curve of first compound, second compound 0.0316 µM) was > 10 µM, the IC50 (curve of first compound, second compound 0.1 µM) was > 10 µM and the IC50 (curve of first compound, second compound 0.316 µM) was > 10 µM. The IC50 (curve of first compound, second compound 1 µM) was > 10 µM, the IC50 (curve of first compound, second compound 3.16 µM) was > 10 µM and the IC50 (curve of first compound, second compound 10 µM) was > 10 µM. For the same compound, the viability, T/C (second compound 0.0316 µM, first compound 0.0316 µM) was 89.8%, the viability, T/C (second compound 0.0316 µM, first compound 0.1 µM) was 110% and the viability, T/C (second compound 0.0316 µM, first compound 0.316 µM) was 85.5%. For the same compound, the viability, T/C (second compound 0.0316 µM, first compound 1 µM) was 79.4%, the viability, T/C (second compound 0.0316 µM, first compound 3.16 µM) was 68% and the viability, T/C (second compound 0.0316 µM, first compound 10 µM) was 71.3%. For the same compound, the viability, T/C (second compound 0.1 µM, first compound 0.0316 µM) was 86.2%, the viability, T/C (second compound 0.1 µM, first compound 0.1 µM) was 94.3% and the viability, T/C (second compound 0.1 µM, first compound 0.316 µM) was 84.2%. It also gave a viability, T/C (second compound 0.1 µM, first compound 1 µM) of 85.5%, a viability, T/C (second compound 0.1 µM, first compound 3.16 µM) of 86.8% and a viability, T/C (second compound 0.1 µM, first compound 10 µM) of 81.7%. The viability, T/C (second compound 0.316 µM, first compound 0.0316 µM) was 99.5%, the viability, T/C (second compound 0.316 µM, first compound 0.1 µM) was 106% and the viability, T/C (second compound 0.316 µM, first compound 0.316 µM) was 93.2%. The viability, T/C (second compound 0.316 µM, first compound 1 µM) was 84.1%, the viability, T/C (second compound 0.316 µM, first compound 3.16 µM) was 80.6% and the viability, T/C (second compound 0.316 µM, first compound 10 µM) was 88%. For the same compound, the viability, T/C (second compound 1 µM, first compound 0.0316 µM) was 104%, the viability, T/C (second compound 1 µM, first compound 0.1 µM) was 93.5% and the viability, T/C (second compound 1 µM, first compound 0.316 µM) was 92.6%. For the same compound, the viability, T/C (second compound 1 µM, first compound 1 µM) was 91.5%, the viability, T/C (second compound 1 µM, first compound 3.16 µM) was 88.7% and the viability, T/C (second compound 1 µM, first compound 10 µM) was 70.6%. For the same compound, the viability, T/C (second compound 3.16 µM, first compound 0.0316 µM) was 101%, the viability, T/C (second compound 3.16 µM, first compound 0.1 µM) was 109% and the viability, T/C (second compound 3.16 µM, first compound 0.316 µM) was 78.9%. The viability, T/C (second compound 3.16 µM, first compound 1 µM) was 84.8%, the viability, T/C (second compound 3.16 µM, first compound 3.16 µM) was 76% and the viability, T/C (second compound 3.16 µM, first compound 10 µM) was 75.9%. For the same compound, the viability, T/C (second compound 10 µM, first compound 0.0316 µM) was 97.5%, the viability, T/C (second compound 10 µM, first compound 0.1 µM) was 84.4% and the viability, T/C (second compound 10 µM, first compound 0.316 µM) was 77.6%. It also gave a viability, T/C (second compound 10 µM, first compound 1 µM) of 86.2%, a viability, T/C (second compound 10 µM, first compound 3.16 µM) of 80% and a viability, T/C (second compound 10 µM, first compound 10 µM) of 70%.

With `COC1C(OC(N)=O)C(O)C(Oc2ccc3c(O)c(NC(=O)c4ccc(O)c(CC=C(C)C)c4)c(=O)oc3c2C)OC1(C)C` (stereo not drawn) the viability, T/C (compound 0.0316 µM) was 102% [middle of 13 runs], the viability, T/C (compound 0.1 µM) was 96.7% [middle of 13 runs] and the viability, T/C (compound 0.316 µM) was 101% [middle of 13 runs]. For the same compound, the viability, T/C (compound 1 µM) was 101% [middle of 13 runs], the viability, T/C (compound 3.16 µM) was 100% [middle of 12 runs] and the viability, T/C (compound 10 µM) was 105% [middle of 13 runs]. The IC50 (compound alone, run of 11/27/2023) was > 10 µM.

In the case of `COc1cccc(OCCCN)c1-c1cc(Nc2cnc(C#N)cn2)n[nH]1`, the viability, T/C (compound 0.00316 µM) is reported as 99.5% and 95.1% and 102%, the viability, T/C (compound 0.01 µM) is reported as 88.5% and 89.2% and 81.1% and the viability, T/C (compound 0.0316 µM) is reported as 73.2% and 77.3% and 77.8%. The viability, T/C (compound 0.1 µM) was 55.3% and 76.4% and 78.8%, the viability, T/C (compound 0.316 µM) was 30.3% and 45.7% and 50.2% and the viability, T/C (compound 1 µM) was 18.1% and 20.9% and 23%. The IC50 (curve of compound) was 0.118 µM and 0.296 µM and 0.345 µM.
